Test results: patent publication EP0193944A1, “Derivatives of 5-fluorouracil” (Nippon Kayaku Kabushiki Kaisha, priority 1985, dated 1986)

Test system: murine leukemia P388
Assay: Antitumor effect to murine leukemia P388 (survival of implanted mice, oral dosing)
Format: in vivo
Details: for Survival Rate (T/C x 100): orally once daily for 5 consecutive days, female CDF1-SLC mice, P 388 cells implanted subcutaneously
Description: Antitumor effect to murine leukemia P388. • Test compounds: 5-FU and compound No.1 (1-(4,4-dimethyl-6-oxo-l-cyclohexenyl)methylcarbamoyl-5-fluorouracil) • Method : 1 x 10^6 leukemia P 388 cells per mouse were implanted subcutaneously to female mice (CDFl-SLC strain, 18-21 g of weight). The control and test group consisted of 3 and 1 mice respectively. The compound No.l and 5-FU were dissolved in 100% dimethylsulfoxide respectively to be adjusted to various concentrations. The solution was administered orally to each mouse once daily for 5 consecutive days, starting 24 hours after the implantation.
Average period in days of survival in the group receiving the compound of this invention (T) and average period in days of survival in the control group (C) were determined to calculate survival rates (T/C x 100%).

SMILES	Survival Rate (T/C x 100) (Dose 2.7 mg/kg/inj) [%]	Survival Rate (T/C x 100) (Dose 5.3 mg/kg/inj) [%]	Survival Rate (T/C x 100) (Dose 10.5 mg/kg/inj) [%]	Survival Rate (T/C x 100) (Dose 21 mg/kg/inj) [%]	Survival Rate (T/C x 100) (Dose 42 mg/kg/inj) [%]	Survival Rate (T/C x 100) (Dose 84 mg/kg/inj) [%]	Survival Rate (T/C x 100) (Dose 25 mg/kg/inj) [%]	Survival Rate (T/C x 100) (Dose 50 mg/kg/inj) [%]	Survival Rate (T/C x 100) (Dose 100 mg/kg/inj) [%]	Survival Rate (T/C x 100) (Dose 200 mg/kg/inj) [%]	Survival Rate (T/C x 100) (Dose 400 mg/kg/inj) [%]	toxicity compared with 5-FU (conclusion from the dose range in the P388 mouse model, oral)
O=c1[nH]cc(F)c(=O)[nH]1 [5-FU, 5-Fluorouracil]	101	103	103	115	64.7	52.5						
CC1(C)CC=C(CNC(=O)n2cc(F)c(=O)[nH]c2=O)C(=O)C1 [Compound No.1, 1-(4,4-dimethyl-6-oxo-l-cyclohexenyl)methylcarbamoyl-5-fluorouracil]							115	129	151	122	71.9	less toxic than 5-FU
